Legend:
Experiment in all cases: Post-emergence test, weed control effect
Type in all cases: in vivo
Amaranthus retroflexus = details: after 3 weeks
Summary of the method: (§1)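 Score 0-10 (10 = completely dead, 1 = below 20%, 0 = no effect) from fresh-weight growth inhibition, read 3 weeks after a post-emergence spray. Greenhouse pot plants at 2-3 leaves; spray solution acetone/Tween-80/water with 80% vegetable oil methyl ester synergist at 1500 g/ha.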

Chenopodiaceae = details: after 3 weeks; for inhibition at 150 g/ha / inhibition at 300 g/ha: 504 h, fresh weight inhibition, read-out: activity level of harmful plant destruction (growth inhibition rate), Chenopodiaceae
Summary of the method: as §1

Echinochloa crus-galli = details: 504 h, after 3 weeks, fresh weight inhibition, read-out: activity level of harmful plant destruction (growth inhibition rate), Echinochloa crus-galli
Summary of the method: as §1

Galium aparine = details: 504 h, after 3 weeks, fresh weight inhibition, read-out: activity level of harmful plant destruction (growth inhibition rate), Galium aparine
Summary of the method: as §1

Rorippa indica = details: after 3 weeks; for inhibition at 150 g/ha / inhibition at 300 g/ha: Rorippa indica, 504 h, fresh weight inhibition, read-out: activity level of harmful plant destruction (growth inhibition rate), Rorippa indica
Summary of the method: as §1

Setaria viridis = details: 504 h, after 3 weeks, fresh weight inhibition, read-out: activity level of harmful plant destruction (growth inhibition rate), Setaria viridis
Summary of the method: as §1

Veronica polita = details: after 3 weeks; for inhibition at 150 g/ha / inhibition at 300 g/ha: Veronica polita, 504 h, fresh weight inhibition, read-out: activity level of harmful plant destruction (growth inhibition rate), Veronica polita
Summary of the method: as §1

Structure (SMILES) | inhibition at 300 g/ha (Chenopodiaceae) [%] | inhibition at 300 g/ha (Echinochloa crus-galli) [%] | inhibition at 300 g/ha (Galium aparine) [%] | inhibition at 300 g/ha (Rorippa indica) [%] | inhibition at 300 g/ha (Setaria viridis) [%] | inhibition at 300 g/ha (Veronica polita) [%] | other results
CCCSC(=O)Oc1cc(C(F)(F)F)nnc1-c1ccc(F)cc1 [Compound 1-43] |  |  |  |  |  |  | weed control effect, Amaranthus retroflexus (activity level) (Amaranthus retroflexus; Dose 3000 g/ha): 10; inhibition at 150 g/ha (Chenopodiaceae): 100%; weed control effect, Chenopodiaceae (activity level) (Chenopodiaceae; Dose 3000 g/ha): 10; inhibition at 150 g/ha (Echinochloa crus-galli): 100%; inhibition at 150 g/ha (Galium aparine): 100%; weed control effect, Rorippa indica (activity level) (Rorippa indica; Dose 3000 g/ha): 10; inhibition at 150 g/ha (Rorippa indica): 100%; inhibition at 150 g/ha (Setaria viridis): 100%; weed control effect, Veronica polita (activity level) (Veronica polita; Dose 3000 g/ha): 10; inhibition at 150 g/ha (Veronica polita): 100%
Cn1nc(-c2cc(O)c(Cl)cc2Cl)c(=O)cc1C(F)(F)F [C, reference compound] | 30 to 40 | 0 | 20 to 30 | 30 to 40 | 0 | 20 to 30 | 
Oc1cc(C(F)(F)F)nnc1-c1ccc(F)c(Cl)c1 [Compound 740] | 100 | 100 | 100 | 100 | 100 | 100 | weed control effect (activity level), Amaranthus retroflexus (Amaranthus retroflexus; Dose 3000 g/ha): 10; weed control effect (activity level), Chenopodiaceae (Chenopodiaceae; Dose 3000 g/ha): 10; weed control effect (activity level), Rorippa indica (Rorippa indica; Dose 3000 g/ha): 10; weed control effect (activity level), Veronica polita (Veronica polita; Dose 3000 g/ha): 10
Oc1cc(C(F)(F)F)nnc1-c1ccc(F)c(F)c1 [Compound 744] | 100 | 100 | 100 | 100 | 100 | 100 | weed control effect (activity level), Amaranthus retroflexus (Amaranthus retroflexus; Dose 3000 g/ha): 10; weed control effect (activity level), Chenopodiaceae (Chenopodiaceae; Dose 3000 g/ha): 10; weed control effect (activity level), Rorippa indica (Rorippa indica; Dose 3000 g/ha): 10; weed control effect (activity level), Veronica polita (Veronica polita; Dose 3000 g/ha): 10
Oc1cc(C(F)(F)F)nnc1-c1ccnc(F)c1 [Compound 206] | 100 | 100 | 100 | 100 | 100 | 100 | weed control effect (activity level), Amaranthus retroflexus (Amaranthus retroflexus; dose 2000 g/ha): 10; weed control effect (activity level), Chenopodiaceae (Chenopodiaceae; dose 2000 g/ha): 10; weed control effect (activity level), Rorippa indica (Rorippa indica; dose 2000 g/ha): 10; weed control effect (activity level), Veronica polita (Veronica polita; dose 2000 g/ha): 10
Oc1cc(C(F)(F)F)nnc1-c1ccc(F)nc1F [Compound 220] | 100 | 100 | 100 | 100 | 100 | 100 | weed control effect (activity level), Amaranthus retroflexus (Amaranthus retroflexus; dose 2000 g/ha): 10; weed control effect (activity level), Chenopodiaceae (Chenopodiaceae; dose 2000 g/ha): 10; weed control effect (activity level), Rorippa indica (Rorippa indica; dose 2000 g/ha): 10; weed control effect (activity level), Veronica polita (Veronica polita; dose 2000 g/ha): 10
C=CCOc1cc(C(F)(F)F)nnc1-c1ccccc1 [E, reference compound] | 0 to 20 | 0 | 0 | 0 to 20 | 0 | 0 | 
CCCCCCCCSC(=O)Oc1cc(C(F)(F)F)nnc1-c1ccc(F)c(F)c1 [Compound 1-55] |  |  |  |  |  |  | weed control effect, Amaranthus retroflexus (activity level) (Amaranthus retroflexus; Dose 3000 g/ha): 10; inhibition at 150 g/ha (Chenopodiaceae): 100%; weed control effect, Chenopodiaceae (activity level) (Chenopodiaceae; Dose 3000 g/ha): 10; inhibition at 150 g/ha (Echinochloa crus-galli): 100%; inhibition at 150 g/ha (Galium aparine): 100%; weed control effect, Rorippa indica (activity level) (Rorippa indica; Dose 3000 g/ha): 10; inhibition at 150 g/ha (Rorippa indica): 100%; inhibition at 150 g/ha (Setaria viridis): 100%; weed control effect, Veronica polita (activity level) (Veronica polita; Dose 3000 g/ha): 10; inhibition at 150 g/ha (Veronica polita): 100%
COc1cc(C(F)(F)F)nnc1-c1ccccc1 [D, reference compound] | 0 to 20 | 0 | 0 | 0 to 20 | 0 | 0 | 
Oc1cc(Cl)nnc1-c1ccccc1 [A, reference compound] | 50 to 60 | 0 | 50 to 60 | 20 to 30 | 30 to 40 | 30 to 40 | 

From patent US12568972B2, “Pyridazinol compounds and derivatives, preparation methods, herbicidal compositions and applications thereof” (Qingdao Kingagroot Chemical Compound Co., Ltd., priority 2018, dated 2026)
